How the values were obtained:
[1] = cited from earlier work
Description: Peptide-based drugs are prone to chemical degradation when presented to enzymes during systemic circulation. Therefore, the stability of the peptide constructs was examined in serum-supplemented media and during incubation in a state-of-the-art in vitro BBB model made up of primary BCECs co-cultured with primary rat astrocytes. Despite their common peptide nature, the stability varied markedly. […] The half-life of ^125I-labelled Tat ([…]) in mouse serum h ...

[2] = differentiation medium (cell media supplemented with 10% fetal bovine serum (FBS)); conditions: 37 °C, up to 4 h
[3] = luminal incubation on bovine brain endothelial cells co-cultured with rat astrocytes in FBS-free differentiation medium; conditions: 37 °C, up to 4 h
[4] = cited from earlier work; remark: listed apart in the source
Text: We detected 0.4% ± 0.1% of injected dose/g of TAMRA-Tat in mouse brain homogenate, which is in line with a previous study reporting 0.1% of injected dose/g of ^111In-DOTA-labelled Tat ([…]) following 1-h circulation in mice. Moreover, less TAMRA-Tat-NR2B9c and TAMRA-Tat-N-dimer appeared to accumulate in the brain compared to TAMRA-Tat. This observation is in agreement with the observed BBB permeation by the Tat-conjugated peptides in live mice, supporting our earlier notion that cargo conjugation to Tat impacts its resulting brain delivery.

[5] = system: bovine BCECs co-cultured with rat astrocytes; test: Peptide uptake into endothelial cells and astrocytes by confocal microscopy after fixation (bovine BBB model); type: cell-based; conditions: 10 µM or 100 µM TAMRA, 3 h, fixed cells, confocal microscopy (Figure S4)
Description: […] TEER was measured at room temperature using an Endohm 12 cup (World Precision Instruments, Sarasota, FL, USA) connected to a Millicell-ERS device (Millipore, Bedford, MA, USA). TEER was measured before application of the peptides and after each experiment. The bovine model had initial TEER values ranging from 771 to 1332 Ω·cm^2, whereas the mouse model had initial TEER values ranging from 136 to 217 Ω·cm^2.
To visualize the TAMRA-peptide taken up by the endothelial cells and astrocytes, the remaining filters (one per batch) from the permeation study using the in vitro bovine BBB model were prepared for confocal microscopy. After removal of the peptide solutions, the cells were fixed with 3% paraformaldehyde in PBS for 15 min at room temperature with horizontal shaking (90 rpm). The cells were washed thrice with PBS prior to permeabilization in 0.1% Triton X-100 in PBS for 5 min and blocking in 2% BSA in PBS for 30 min at room temperature with horizontal shaking (90 rpm). The filter inserts were cut out, divided into smaller pieces, and transferred to a 48-well plate to stain zonula ocludens-1 (ZO-1) in the BCECs and F-actin in the astrocytes. Filter pieces with BCECs facing upwards were incubated with a primary antibody directed against ZO-1 (1:100 in PBS with 2% BSA; Thermo Fischer Scientific, Bedford, MA, USA, no. 617300) for 2 h at room temperature. Subsequently, the filters were washed thrice for 5 min in PBS with 2% BSA prior to 30 min incubation with an Alexa-488-conjugated secondary antibody (1:100 in PBS with 2% BSA; Thermo Fischer Scientific, Bedford, MA, USA, no. A11008). Filter pieces with astrocytes facing upwards were incubated with Alexa-488-conjugated phalloidin (1:133 in PBS with 2% BSA; Thermo Fischer Scientific, Bedford, MA, USA) for 30 min at room temperature and washed thrice for 5 min in PBS with 2% BSA. The filter pieces were mounted on glass slides under coverslips using Immu-Mount™ mounting media and imaged using single wavelength excitation a Zeiss 510 laser-scanning confocal microscope (Carl Zeiss, Jena, Germany).

Substance: YGRKKRRQRRR [^125I-labelled Tat]
- half-life in mouse serum [1]: 2.7 min

Substance: TAMRA-KLSSIESDV
- not cleaved [2]: 92.0% ± 12.6% of the initial concentration remaining after 4 h
- not cleaved [3]: 95.7% ± 1.6% remaining after 4 h

Substance: GRKKRRQRRRPPQ [^111In-DOTA-labelled Tat]
- half-life in human serum [1]: 8.8 h
- brain level following 1-h circulation in mice [4]: 0.1 % of injected dose/g

Substance: TAMRA [reference compound]
- uptake of TAMRA as a single entity into the endothelial cells or the astrocytes [5]: not internalized
